# Source: ChEMBL document CHEMBL5257055, “Contemporary Progress and Opportunities in RNA-Targeted Drug Discovery” (ACS Med Chem Lett, 2023)
# Numbered stars: 1 amine (or outer) side, 2 acyl side, 3 side chain; on linkers, the order of the positions; unused ones are H or OH. Bridge positions count the residues as written; N and C are the ends. Peptide text beside a SMILES is read from it. X1 = CCC(C)CCCCCCCCC(CC(=O)[*:1])O[*:2]
# What was measured:
# [1] = Binding affinity to pre-miR-27a (unknown origin) assessed as dissociation constant
# [2] = Binding affinity to XIST RNA (unknown origin)
# [3] = Binding affinity to pre-miR-21 (unknown origin) assessed as dissociation constant
# [4] = Binding affinity to HCV IRES; set-up: species or system Hepacivirus hominis
# [5] = Binding affinity to r(AUUCA) repeat RNA (unknown origin) assessed as dissociation constant
# [6] = Binding affinity to mouse MALAT1 assessed as dissociation constant
# FMN riboswitch = assay: Binding affinity to Escherichia coli FMN riboswitch RNA assessed as dissociation constant; assay type: nucleic-acid assay
# [7] = Binding affinity to SARS-CoV-2 Attenuator hairpin RNA by MST assay; set-up: species or system Severe acute respiratory syndrome coronavirus 2
# [8] = Binding affinity to pre-miR-200c (unknown origin) assessed as dissociation constant
# [9] = Binding affinity to HCV RNA; set-up: species or system Hepacivirus hominis
# [10] = Binding affinity to preQ1
# [11] = Binding affinity to CUG repeat RNA (unknown origin) assessed as dissociation constant
# [12] = Binding affinity to CAG repeat RNA (unknown origin) assessed as dissociation constant
# [13] = Binding affinity to pre-miR-544 (unknown origin) assessed as dissociation constant
# [14] = Binding affinity to pre-mRNA (unknown origin)
# Sulfhydryl oxidase 1 = biological target: T1, Sulfhydryl oxidase 1 (Homo sapiens, UniProt O00391); assay: Binding affinity to QSOX1 (unknown origin) assessed as dissociation constant
# T1 sequence (O00391 whole entry): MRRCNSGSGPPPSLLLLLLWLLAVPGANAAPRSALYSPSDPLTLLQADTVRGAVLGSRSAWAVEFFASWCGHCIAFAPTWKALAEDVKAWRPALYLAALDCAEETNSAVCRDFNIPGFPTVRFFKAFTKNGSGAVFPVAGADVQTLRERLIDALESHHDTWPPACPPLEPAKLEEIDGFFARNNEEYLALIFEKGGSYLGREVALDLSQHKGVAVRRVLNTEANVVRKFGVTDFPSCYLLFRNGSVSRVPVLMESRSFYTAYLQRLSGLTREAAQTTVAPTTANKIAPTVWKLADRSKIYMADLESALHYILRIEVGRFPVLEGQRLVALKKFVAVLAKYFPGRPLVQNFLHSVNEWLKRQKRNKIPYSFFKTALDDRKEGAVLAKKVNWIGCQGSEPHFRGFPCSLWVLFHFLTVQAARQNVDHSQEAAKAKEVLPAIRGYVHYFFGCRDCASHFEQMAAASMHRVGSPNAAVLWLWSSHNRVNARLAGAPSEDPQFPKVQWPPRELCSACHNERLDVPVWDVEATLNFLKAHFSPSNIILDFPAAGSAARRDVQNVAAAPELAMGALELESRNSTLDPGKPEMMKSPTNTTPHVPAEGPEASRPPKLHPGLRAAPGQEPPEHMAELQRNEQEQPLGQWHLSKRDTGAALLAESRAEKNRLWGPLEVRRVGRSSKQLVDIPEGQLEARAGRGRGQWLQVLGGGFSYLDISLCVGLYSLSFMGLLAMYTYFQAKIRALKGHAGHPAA
# [15] = Binding affinity to HIV-1 RNA assessed as dissociation constant; set-up: species or system Human immunodeficiency virus 1
# [16] = Binding affinity to pre-miR-96 (unknown origin) assessed as dissociation constant
# [17] = Binding affinity to pre-miR-210 (unknown origin) assessed as dissociation constant
# [18] = Binding affinity to CGG repeat RNA (unknown origin) assessed as dissociation constant
smiles,measurement,setting,value
Cc1ccc(C(=O)N2Cc3ccccc3C[C@H]2C(N)=O)cc1NCc1c(F)ccc(O)c1F,Kd,[1],0.094 µM
c1ccc(COc2cccc(-c3ccc4[nH]nc(-c5nc6ccccc6[nH]5)c4c3)c2)cc1,Kd,[2],0.4 µM
C#CCCC1(CCC(=O)Nc2ccc(OC)c(OCc3cn4ccccc4n3)c2)N=N1,Kd,[3],0.256 µM
CN(C)c1nc(N)c(C(=O)NC(=N)N)nc1C#Cc1ccccc1,Kd,[4],0.52 µM
N=C(N)c1ccc(-c2ccc(-c3ccc(C(=N)N)cc3)o2)cc1 [FURAMIDINE],Kd,[5],0.17 µM
same,Kd,[6],0.56 µM
CNc1ncc(CN2CCCC(c3nc(O)cc(-c4cccs4)n3)C2)cn1 (stereo not drawn),Kd,FMN riboswitch,0.016 µM
CNc1nc(Nc2cccc(C(=O)O)c2)nc2ccccc12,Kd,[7],0.011 µM
O=C(NCCN1CCCC1)c1ccc2oc(C(=O)c3cc(O)c(O)c(O)c3)cc2c1,Kd,[4],0.36 µM
CN(C)CC1COc2ccc3nc4n(c3c2C1)CC(CN(C)C)CN4 (stereo not drawn),Kd,[4],0.72 µM
O=C(Nc1ccc(C2=NCCN2)cc1)c1cc(C(=O)Nc2ccc(C3=NCCN3)cc2)cc(C(=O)Nc2ccc(C3=NCCN3)cc2)c1,Kd,[8],1.1 µM
same,Kd,[9],0.849 µM
NCCOc1ccc2oc3ccccc3c2c1,Kd,[10],0.5 µM
N#Cc1c(N2CCCC2)nc(N)c2c(N)nc(N3CCCC3)cc12,Kd,[11],0.125 µM
same,Kd,[12],1.4 µM
same,Kd,[13],1 µM
O=C1c2c(O)ccc(O)c2C(=O)c2c(NCCNCCO)ccc(NCCNCCO)c21 [MITOXANTRONE],Kd,[14],< 1 µM
same,Kd,[3],0.033 µM
COc1ccc(-c2cnc(NCc3cccc(OC)c3)n2C)cc1,Kd,[6],2.9 µM
C#CCN(CC(N)=O)C(=O)C[C@@H](Cc1c[nH]c2ccccc12)NC(=O)[C@H]1CC(NC(=O)Cn2c(=O)[nH]c3ccccc3c2=O)CN1 (stereo partly drawn),Kd,[1],0.09 µM
C#CCCC1(CCC(=O)N(C)[C@@H]2CC[C@H](c3ccc(Cl)c(Cl)c3)c3ccccc32)N=N1,Kd,Sulfhydryl oxidase 1,16 µM
CCC(C)CCCCCCCCC1CC(=O)N[C@@H](CCC(=O)O)C(=O)N[C@@H](CC(C)C)C(=O)N[C@@H](CC(C)C)C(=O)N[C@@H](C(C)C)C(=O)N[C@@H](CC(=O)O)C(=O)N[C@@H](CC(C)C)C(=O)N[C@@H](CC(C)C)C(=O)O1 (stereo partly drawn) (ELLVDLL; linker N-C via X1),Kd,[3],0.78 µM
NC(=O)CNC(=O)[C@H](Cc1ccc(Cl)cc1)NC(=O)c1ccc2nc(-c3ccccc3)[nH]c2c1,Kd,[11],6.3 µM
CC(=O)c1c(C)c2cnc(Nc3ccc(N4CCNCC4)cn3)nc2n(C2CCCC2)c1=O [PALBOCICLIB],Kd,[15],0.104 µM
CN1CCN(c2ccc3nc(-c4ccc5[nH]c(-c6cccc(OCCCC(=O)NCCCN=[N+]=[N-])c6)nc5c4)[nH]c3c2)CC1,Kd,[16],1.5 µM
same,Kd,[17],1.7 µM
same,Kd,[11],0.15 µM
same,Kd,[18],0.375 µM
